Source: patent US20120220567A1, “BENZO-FUSED OXAZEPINE COMPOUNDS AS STEAROYL-COENZYME A DELTA-9 DESATURASE INHIBITORS” (priority 2009, published 2012)
pIC50: −log10 of the molar value.

Biological target: T1, SCD-1 (Homo sapiens, UniProt O00767)
T1 construct: 50 μg of protein from a HepG2 cell P2 pellet; endogenous in cells; host or cells: HepG2 cells (P2 pellet)
T1 sequence (O00767 1-359): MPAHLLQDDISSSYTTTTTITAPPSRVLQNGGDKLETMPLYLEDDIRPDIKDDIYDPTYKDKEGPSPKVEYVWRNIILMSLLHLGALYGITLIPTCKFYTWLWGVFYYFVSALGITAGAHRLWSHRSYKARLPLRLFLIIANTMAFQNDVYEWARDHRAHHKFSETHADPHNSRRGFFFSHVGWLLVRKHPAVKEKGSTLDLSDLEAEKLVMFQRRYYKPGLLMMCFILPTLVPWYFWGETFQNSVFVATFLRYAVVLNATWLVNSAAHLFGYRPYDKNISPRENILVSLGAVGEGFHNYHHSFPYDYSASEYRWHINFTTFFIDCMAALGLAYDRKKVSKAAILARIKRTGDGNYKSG
Test: Stearoyl-CoA desaturase assay (HepG2 cell P2 pellet)
Type: biochemical
Settings: Table 1, compounds of formula (Ia); protein from HepG2 cell P2 pellet, 20 μM stearoyl-CoA, 15 min at 25° C.; read-out: Ave IC50
Method: Stearoyl-CoA desaturase assays were performed in according to Talamo and Bloch. […] Assays were run in triplicate in 100-μl volumes of 100 mM TrisHCl, pH 7.3, containing 20 μM stearoyl-CoA, 2 mM β-NADH, and 50 μg of protein from a HepG2 cell P2 pellet. Since SCD-1 is the only isoform of SCD expressed in these cells, the assay is specific for SCD-1 with these cells as the source of enzyme. Reaction mixtures were incubated fifteen minutes at 25° C. and reactions were then stopped with a volume of trichloroacetic acid giving a final concentration of 0.2%. After five minutes, a 90-μl volume was transferred to a Millipore Multiscreen HTS 96-well filtration plate (MSHVN4B50) containing 125 μl of 10% charcoal in each well, to which vacuum had been previously applied. Plates were shaken fifteen minutes and then filtered into a collection plate. Fifty-μI volumes of filtrate were transferred to another plate containing 150 μl of MicroScint 40 for counting on a TopCount scintillation counter.

Compound | pIC50
CCc1ccc(CN2CCC3(CCN(C(=O)CNC(=O)C[C@@H](C)O)CC3)Oc3ccccc32)cc1 [Compound 8] | 5.00 to 6.30
CC(=O)NCC(=O)N1CCC2(CC1)CCN(Cc1cccc(O)c1)c1ccccc1O2 [Compound 32] | 5.00 to 6.30
CCc1ccc(CN2CCC3(CCN(C(=O)CNC(=O)C(C)C)CC3)Oc3ccccc32)cc1 [Compound 6] | 5.00 to 6.30
CC(=O)NCC(=O)N1CCC2(CC1)CCN(Cc1ccc(C#N)cc1)c1ccccc1O2 [Compound 21] | 5.00 to 6.30
CC(=O)NCC(=O)N1CCC2(CC1)CCN(Cc1ccccc1F)c1ccccc1O2 [Compound 19] | < 5.00
CCc1ccc(CN2CCC3(CCN(C(=O)C(CO)NC(C)=O)CC3)Oc3ccccc32)cc1 (stereo not shown) [Compound 2] | < 5.00
CC(=O)NCC(=O)N1CCC2(CC1)CCN(Cc1ccc(F)cc1)c1ccccc1O2 [Compound 27] | 6.30 to 7.30
CC(=O)NCC(=O)N1CCC2(CC1)CCN(Cc1ccc(Br)cc1)c1ccccc1O2 [Compound 40] | 5.00 to 6.30
CC(=O)NCC(=O)N1CCC2(CC1)CCN(Cc1cccc(F)c1)c1ccccc1O2 [Compound 29] | 5.00 to 6.30
COC(=O)c1cccc(CN2CCC3(CCN(C(=O)CNC(C)=O)CC3)Oc3ccccc32)c1 [Compound 25] | 5.00 to 6.30
CC(=O)NCC(=O)N1CCC2(CC1)CCN(Cc1ccc(Cl)cc1)c1ccccc1O2 [Compound 17] | < 5.00
CCc1ccc(CN2CCC3(CCN(C(=O)[C@H](C)NC(C)=O)CC3)Oc3ccccc32)cc1 [Compound 3] | < 5.00
CC(=O)NCC(=O)N1CCC2(CC1)CCN(Cc1cccc(C(F)(F)F)c1)c1ccccc1O2 [Compound 1, N-(2-oxo-2-(5-(3-(trifluoromethyl)benzyl)-4,5-dihydro-3H-spiro[benzo[b][1,4]oxazepine-2,4′-piperidine]-1′-yl)ethyl)acetamide] | < 5.00
CC(=O)NCC(=O)N1CCC2(CC1)CCN(Cc1ccc(C)s1)c1ccccc1O2 [Compound 20] | < 5.00
CC(=O)NCC(=O)N1CCC2(CC1)CCN(Cc1ccc(C(C)(C)C)cc1)c1cccc(Cl)c1O2 [Compound 15] | 5.00 to 6.30

Same assay, conditions: Table 2, compounds of formula (Ib); protein from HepG2 cell P2 pellet, 20 μM stearoyl-CoA, 15 min at 25° C.; read-out: Ave IC50

pIC50 | Compound
7.31 to 9.30 | COC(=O)c1cnc(N2CCC3(CC2)CCN(Cc2cccc(C(F)(F)F)c2)c2ccccc2O3)s1 [Compound 50, methyl 2-(5-(3-(trifluoromethyl)benzyl)-4,5-dihydro-3H-spiro[benzo[b][1,4]oxazepine-2,4′-piperidine]-1′-yl)thiazole-5-carboxylate]
5.00 to 6.30 | CC(C)(C)c1ccc(CN2CCC3(CCN(c4ncc(C(=O)NC[C@H](O)c5ccccc5)s4)CC3)Oc3c(F)cccc32)cc1 [Compound 99]
7.31 to 9.30 | CNC(=O)c1cnc(N2CCC3(CC2)CCN(Cc2cccc(C(F)(F)F)c2)c2ccccc2O3)s1 [Compound 58, N-methyl-2-(5-(3-(trifluoromethyl)benzyl)-4,5-dihydro-3H-spiro[benzo[b][1,4]oxazepine-2,4′-piperidine]-1′-yl)thiazole-5-carboxamide]
5.00 to 6.30 | CN(C)CCCNC(=O)c1cnc(N2CCC3(CC2)CCN(Cc2ccc(C(C)(C)C)cc2)c2cccc(F)c2O3)s1 [Compound 107]
7.31 to 9.30 | CC(C)(C)c1ccc(CN2CCC3(CCN(c4ncc(C(=O)NCC5OCCO5)s4)CC3)Oc3c(F)cccc32)cc1 [Compound 88]
7.31 to 9.30 | O=C(NCCCO)c1cnc(N2CCC3(CC2)CCN(Cc2cccc(C(F)(F)F)c2)c2ccccc2O3)s1 [Compound 62]
7.31 to 9.30 | CC(C)(C)c1ccc(CN2CCC3(CCN(c4ncc(C(=O)NC[C@H](O)CO)s4)CC3)Oc3ccccc32)cc1 [Compound 126]
7.31 to 9.30 | CC(C)(C)c1ccc(CN2CCC3(CCN(c4ncc(C(N)=O)s4)CC3)Oc3c(F)cccc32)cc1 [Compound 76]
< 5.00 | CC(C)(C)c1ccc(CN2CCC3(CCN(c4ncc(C(=O)Nc5ccccc5)s4)CC3)Oc3ccccc32)cc1 [Compound 71]
6.30 to 7.30 | CC(C)(C)c1ccc(CN2CCC3(CCN(c4ncc(C(=O)O)s4)CC3)Oc3ccccc32)cc1 [Compound 64]
7.31 to 9.30 | O=C(NC[C@H](O)CO)c1cnc(N2CCC3(CC2)CCN(Cc2cccc(C(F)(F)F)c2)c2ccccc2O3)s1 [Compound 61]
7.31 to 9.30 | CCNC(=O)c1cnc(N2CCC3(CC2)CCN(Cc2ccc(C(C)(C)C)cc2)c2ccccc2O3)s1 [Compound 68]

Continued, molecule first:

Compound | pIC50
CC(C)(C)c1ccc(CN2CCC3(CCN(c4ncc(C(=O)NCc5ccccn5)s4)CC3)Oc3c(F)cccc32)cc1 [Compound 85] | 6.30 to 7.30
O=C(NC[C@H](O)CO)c1cnc(N2CCC3(CC2)CCN(Cc2cccc(C(F)(F)F)c2)c2cccc(F)c2O3)s1 [Compound 132] | 7.31 to 9.30
CC(C)(C)c1ccc(CN2CCC3(CCN(c4ncc(C(=O)NCC(F)(F)F)s4)CC3)Oc3c(F)cccc32)cc1 [Compound 98] | 6.30 to 7.30
FC(F)(F)c1cccc(CN2CCC3(CCN(c4ncc(Br)s4)CC3)Oc3ccccc32)c1 [Compound 53] | 5.00 to 6.30
CC(C)(C)c1ccc(CN2CCC3(CCN(c4ncc(C(=O)NCCN5CCNC5=O)s4)CC3)Oc3c(F)cccc32)cc1 [Compound 113] | 5.00 to 6.30
CC(C)(C)c1ccc(CN2CCC3(CCN(c4ncc(C(=O)NCCCN5CCCC5)s4)CC3)Oc3c(F)cccc32)cc1 [Compound 117] | < 5.00
CC(C)(C)c1ccc(CN2CCC3(CCN(c4ncc(C(=O)NCC[C@H]5CC[C@H](O)C5)s4)CC3)Oc3c(F)cccc32)cc1 [Compound 80] | 5.00 to 6.30
CC(C)(C)c1ccc(CN2CCC3(CCN(c4ncc(C(=O)NCCc5cccs5)s4)CC3)Oc3c(F)cccc32)cc1 [Compound 83] | 5.00 to 6.30
Cc1ccc(CNC(=O)c2cnc(N3CCC4(CC3)CCN(Cc3ccc(C(C)(C)C)cc3)c3cccc(F)c3O4)s2)o1 [Compound 104] | 6.30 to 7.30
CC(C)(C)c1ccc(CN2CCC3(CCN(c4ncc(C(=O)NC[C@H]5CC[C@H](O)C5)s4)CC3)Oc3c(F)cccc32)cc1 [Compound 82] | < 5.00
CC(C)(C)c1ccc(CN2CCC3(CCN(c4ncc(C(=O)NCCCn5ccnn5)s4)CC3)Oc3c(F)cccc32)cc1 [Compound 86] | 5.00 to 6.30
O=C(c1cnc(N2CCC3(CC2)CCN(Cc2cccc(C(F)(F)F)c2)c2ccccc2O3)s1)N1CCCC1 [Compound 56] | 5.00 to 6.30
Cc1cnc(CNC(=O)c2cnc(N3CCC4(CC3)CCN(Cc3ccc(C(C)(C)C)cc3)c3cccc(F)c3O4)s2)cn1 [Compound 112] | 5.00 to 6.30
CC(C)(C)CCNC(=O)c1cnc(N2CCC3(CC2)CCN(Cc2ccc(C(C)(C)C)cc2)c2cccc(F)c2O3)s1 [Compound 122] | < 5.00
CC(C)(C)c1ccc(CN2CCC3(CCN(c4ncc(C(=O)NCC(O)c5ccccn5)s4)CC3)Oc3c(F)cccc32)cc1 (stereo not shown) [Compound 118] | 6.30 to 7.30

Same assay, conditions: Table 3, compounds of formula (Ic); protein from HepG2 cell P2 pellet, 20 μM stearoyl-CoA, 15 min at 25° C.; read-out: Ave IC50

pIC50 | Compound
6.30 to 7.30 | CCCNC(=O)c1ccc(N2CCC3(CC2)CCN(Cc2cccc(C(F)(F)F)c2)c2ccccc2O3)nn1 [Compound 157]
7.31 to 9.30 | COC(=O)CCNC(=O)c1ccc(N2CCC3(CC2)CCN(Cc2cccc(C(F)(F)F)c2)c2ccccc2O3)nn1 [Compound 166]
7.31 to 9.30 | O=C(NCCC1CC1)c1ccc(N2CCC3(CC2)CCN(Cc2cccc(C(F)(F)F)c2)c2ccccc2O3)nn1 [Compound 151]
7.31 to 9.30 | CCCCNC(=O)c1ccc(N2CCC3(CC2)CCN(Cc2cccc(C(F)(F)F)c2)c2ccccc2O3)nn1 [Compound 156]
5.00 to 6.30 | CN(C)CCNC(=O)c1ccc(N2CCC3(CC2)CCN(Cc2cccc(C(F)(F)F)c2)c2ccccc2O3)nn1 [Compound 154]
6.30 to 7.30 | COC(=O)c1ccc(N2CCC3(CC2)CCN(Cc2ccc(C(C)(C)C)cc2)c2cccc(F)c2O3)nc1 [Compound 143]

Second part, the molecule before the results:

Compound | pIC50
O=C(NCCc1c[nH]cn1)c1ccc(N2CCC3(CC2)CCN(Cc2cccc(C(F)(F)F)c2)c2ccccc2O3)nn1 [Compound 162] | 7.31 to 9.30
COC(=O)CCNC(=O)c1ccc(N2CCC3(CC2)CCN(Cc2cccc(C(F)(F)F)c2)c2cccc(F)c2O3)nn1 [Compound 173] | 7.31 to 9.30
O=C(NCCC1CC1)c1ccc(N2CCC3(CC2)CCN(Cc2cccc(C(F)(F)F)c2)c2cccc(F)c2O3)nn1 [Compound 175] | 7.31 to 9.30
O=C(NCC1CC1)c1ccc(N2CCC3(CC2)CCN(Cc2cccc(C(F)(F)F)c2)c2ccccc2O3)nn1 [Compound 168] | 6.30 to 7.30
O=C(NCCC1CC1)c1ccc(N2CCC3(CC2)CCN(Cc2cc4ccccc4o2)c2ccccc2O3)nn1 [Compound 180] | 7.31 to 9.30
CC(C)(C)c1ccc(CN2CCC3(CCN(c4ccc(C(=O)NCCc5ccncc5)nn4)CC3)Oc3c(F)cccc32)cc1 [Compound 144] | 7.31 to 9.30
CC(C)(C)c1ccc(CN2CCC3(CCN(c4ccc(C(=O)NCCc5c[nH]cn5)cn4)CC3)Oc3c(F)cccc32)cc1 [Compound 148] | 5.00 to 6.30
